Test [1] in a line: DRUGMATRIX: Phosphodiesterase PDE4 enzyme inhibition (substrate: [3H]cAMP + cAMP). The following applies: u-937; Not Active = under 50% inhibition at 10 µM.
Test [2] deals with T1, Type-2 angiotensin II receptor (Homo sapiens, UniProt P50052).
T1 sequence (P50052 whole entry): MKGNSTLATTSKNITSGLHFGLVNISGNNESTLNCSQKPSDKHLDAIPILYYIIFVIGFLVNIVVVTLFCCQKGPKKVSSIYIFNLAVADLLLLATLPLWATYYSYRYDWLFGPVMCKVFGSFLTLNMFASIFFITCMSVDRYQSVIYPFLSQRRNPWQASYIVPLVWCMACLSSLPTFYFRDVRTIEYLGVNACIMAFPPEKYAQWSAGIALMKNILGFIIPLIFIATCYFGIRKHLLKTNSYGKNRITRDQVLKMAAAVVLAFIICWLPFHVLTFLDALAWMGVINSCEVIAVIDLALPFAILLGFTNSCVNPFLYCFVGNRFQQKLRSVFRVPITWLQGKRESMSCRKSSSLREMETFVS
The test is classed as cell-based. The conditions noted are these: cho-k1.

Test [3] concerns the target T2, Angiotensin-converting enzyme (Oryctolagus cuniculus, UniProt P12822).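 Note: enzymatic inhibition of angiotensin-converting enzyme measured with FAPGG as the substrate; in other assays of this panel Not Active means under 50% inhibition at 10 µM.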
T2 sequence (P12822 whole entry): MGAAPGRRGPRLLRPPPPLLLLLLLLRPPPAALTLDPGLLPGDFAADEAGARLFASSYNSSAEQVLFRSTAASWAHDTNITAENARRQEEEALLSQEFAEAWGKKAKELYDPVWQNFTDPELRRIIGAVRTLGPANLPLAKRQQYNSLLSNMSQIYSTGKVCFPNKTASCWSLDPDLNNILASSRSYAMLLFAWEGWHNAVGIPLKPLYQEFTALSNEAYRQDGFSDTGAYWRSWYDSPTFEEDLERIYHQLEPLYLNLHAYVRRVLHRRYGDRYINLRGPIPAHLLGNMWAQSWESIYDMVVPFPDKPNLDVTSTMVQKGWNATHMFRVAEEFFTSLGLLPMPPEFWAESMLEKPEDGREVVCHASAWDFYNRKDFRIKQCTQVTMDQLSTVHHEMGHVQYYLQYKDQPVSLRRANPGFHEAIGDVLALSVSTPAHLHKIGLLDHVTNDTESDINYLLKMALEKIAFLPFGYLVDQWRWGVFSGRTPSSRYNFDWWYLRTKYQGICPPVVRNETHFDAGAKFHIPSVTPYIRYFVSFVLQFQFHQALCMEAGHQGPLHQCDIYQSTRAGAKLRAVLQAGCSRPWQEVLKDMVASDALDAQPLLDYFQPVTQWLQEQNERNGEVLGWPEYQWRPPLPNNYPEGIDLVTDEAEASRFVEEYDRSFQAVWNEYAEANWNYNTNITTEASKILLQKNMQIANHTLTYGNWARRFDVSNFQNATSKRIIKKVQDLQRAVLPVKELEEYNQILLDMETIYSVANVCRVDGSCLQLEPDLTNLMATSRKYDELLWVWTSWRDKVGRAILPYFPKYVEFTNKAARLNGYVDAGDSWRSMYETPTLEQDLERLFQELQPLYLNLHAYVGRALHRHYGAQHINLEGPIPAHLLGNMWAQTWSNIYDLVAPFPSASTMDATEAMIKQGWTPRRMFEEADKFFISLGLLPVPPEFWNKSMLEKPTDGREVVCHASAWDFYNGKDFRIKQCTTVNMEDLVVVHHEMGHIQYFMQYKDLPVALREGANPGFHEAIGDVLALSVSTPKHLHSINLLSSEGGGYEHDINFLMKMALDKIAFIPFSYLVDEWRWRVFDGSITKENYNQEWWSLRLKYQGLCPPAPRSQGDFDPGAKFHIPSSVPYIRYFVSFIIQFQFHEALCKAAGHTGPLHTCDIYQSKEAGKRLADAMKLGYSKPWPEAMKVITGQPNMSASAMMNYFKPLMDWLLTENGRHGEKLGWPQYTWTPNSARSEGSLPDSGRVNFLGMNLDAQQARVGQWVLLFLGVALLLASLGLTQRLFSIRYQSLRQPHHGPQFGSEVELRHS
Type of test: tissue-based, Lung.

Test [4] addresses T3, Cysteinyl leukotriene receptor 1 (Homo sapiens, UniProt Q9Y271).
T3 sequence (Q9Y271 whole entry): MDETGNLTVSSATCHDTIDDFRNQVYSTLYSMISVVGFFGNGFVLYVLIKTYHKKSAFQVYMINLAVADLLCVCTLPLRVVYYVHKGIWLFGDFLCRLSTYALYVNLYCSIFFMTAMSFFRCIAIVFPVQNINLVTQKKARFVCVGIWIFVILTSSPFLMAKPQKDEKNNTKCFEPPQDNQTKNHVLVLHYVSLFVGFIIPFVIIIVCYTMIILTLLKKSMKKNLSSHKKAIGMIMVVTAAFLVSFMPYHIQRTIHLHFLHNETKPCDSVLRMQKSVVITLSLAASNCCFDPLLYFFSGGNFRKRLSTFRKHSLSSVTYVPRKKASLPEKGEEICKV
The test is classed as cell membranes, Membrane. The following applies: cho-k1.

Test [5] addresses Sodium-dependent dopamine transporter (Homo sapiens, UniProt Q01959). In words: DRUGMATRIX: Dopamine Transporter radioligand binding (ligand: [125I] RTI-55). Type of test: cell membranes, CHO-K1, Membrane. The conditions noted are these: Not Active = under 50% inhibition at 10 µM; for IC50: cho-k1.

Consider 17 molecules from ChEMBL document CHEMBL1909046, “DrugMatrix in vitro pharmacology data”.

pIC50, pKi: −log10 of the molar value.

Sequence of Sodium-dependent dopamine transporter (Q01959 whole entry): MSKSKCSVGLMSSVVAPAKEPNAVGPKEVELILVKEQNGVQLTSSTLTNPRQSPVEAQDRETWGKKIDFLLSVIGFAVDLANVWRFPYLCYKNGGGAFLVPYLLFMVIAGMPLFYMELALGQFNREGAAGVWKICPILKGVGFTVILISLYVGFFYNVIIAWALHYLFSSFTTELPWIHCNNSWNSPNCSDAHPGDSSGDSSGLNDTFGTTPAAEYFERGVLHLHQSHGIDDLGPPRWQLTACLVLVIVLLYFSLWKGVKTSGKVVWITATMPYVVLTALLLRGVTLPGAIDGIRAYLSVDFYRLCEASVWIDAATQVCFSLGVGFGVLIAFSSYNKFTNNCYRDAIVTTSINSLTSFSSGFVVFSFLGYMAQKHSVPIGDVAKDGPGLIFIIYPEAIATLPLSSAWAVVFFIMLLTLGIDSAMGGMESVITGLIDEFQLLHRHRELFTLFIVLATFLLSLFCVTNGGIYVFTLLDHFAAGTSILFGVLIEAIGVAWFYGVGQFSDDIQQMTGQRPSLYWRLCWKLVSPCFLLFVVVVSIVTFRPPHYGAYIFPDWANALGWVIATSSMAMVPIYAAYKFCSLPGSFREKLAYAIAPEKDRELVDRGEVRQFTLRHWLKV

As for `CN/C(=N\CCSCc1nc[nH]c1C)NC#N` [CIMETIDINE], the IC50 result in test [1], in test [2], in test [3], in test [4] and in test [5] was “Not Active” in each case. Further, the Ki entry in test [1] is listed as “Not Active”.
Regarding `CCCNCC(O)COc1ccccc1C(=O)CCc1ccccc1` (stereo unspecified) [PROPAFENONE], the IC50 entry in test [1], in test [2], in test [3] and in test [4] was “Not Active” in each case. Also, the Ki result in test [1] is listed as “Not Active”.
For `COc1cc([C@@H]2c3cc4c(cc3[C@@H](O[C@@H]3O[C@@H]5CO[C@@H](C)O[C@H]5[C@H](O)[C@H]3O)[C@H]3COC(=O)[C@H]23)OCO4)cc(OC)c1O` [ETOPOSIDE], the IC50 entry in test [1], in test [2], in test [3], in test [4] and in test [5] was “Not Active” throughout. The Ki entry in test [1] was “Not Active”.
As to `C[C@@H]1C[C@H]2[C@@H]3CCC4=CC(=O)C=C[C@]4(C)[C@@]3(F)[C@@H](O)C[C@]2(C)[C@H]1C(=O)CO` [DESOXIMETASONE], the IC50 entry in test [1], in test [2], in test [3], in test [4] and in test [5] was “Not Active” throughout. Further, in test [1], the Ki entry is given as “Not Active”.
One may read the pIC50 as −log10 of the IC50, conventionally taken in molar units. For orientation: pKi means the Ki on a negative log10 scale, so that one unit is a factor of ten. As to `CC(=O)[C@@]1(O)CC[C@H]2[C@@H]3CCC4=CC(=O)CC[C@]4(C)[C@H]3CC[C@@]21C` [HYDROXYPROGESTERONE], the IC50 entry in test [1], in test [2], in test [3] and in test [4] was “Not Active” throughout. The Ki entry in test [1] is on record as “Not Active”. For the same molecule, the pIC50 in test [5] (read-out: IC50) is 5.16. In addition, the negative logarithm of the Ki (pKi) in test [5] (read-out: Ki) is 5.26.
For the molecule `C[C@]12C=CC(=O)C=C1CC[C@@H]1[C@@H]2[C@@H](O)C[C@@]2(C)[C@H]1CC[C@]2(O)C(=O)CO` [PREDNISOLONE], the IC50 entry in test [1], in test [2], in test [3], in test [4] and in test [5] was “Not Active” each time. Further, in test [1], the Ki result was “Not Active”.
As to `CCC1(CCC(C)C)C(=O)NC(=O)NC1=O` [AMOBARBITAL], the IC50 entry in test [1], in test [2], in test [3], in test [4] and in test [5] was “Not Active” throughout. Also, the Ki result in test [1] is listed as “Not Active”.
For `OC(CCCN1CCCCC1)(c1ccccc1)c1ccccc1` [DIPHENIDOL], the IC50 result in test [1], in test [2], in test [3], in test [4] and in test [5] was “Not Active” throughout. In addition, the Ki entry in test [1] is reported as “Not Active”.
`Cn1c(=O)c2[nH]cnc2n(C)c1=O.Cn1c(=O)c2[nH]cnc2n(C)c1=O.NCCN` [AMINOPHYLLINE]: the IC50 entry in test [1], in test [2], in test [3], in test [4] and in test [5] was “Not Active” in each case. Besides, the Ki result in test [1] is given as “Not Active”.
In the case of `CCC(=O)O[C@]1(C(=O)CCl)[C@@H](C)C[C@H]2[C@@H]3CCC4=CC(=O)C=C[C@]4(C)[C@@]3(F)[C@@H](O)C[C@@]21C` [CLOBETASOL PROPIONATE], the IC50 entry in test [1], in test [2], in test [3], in test [4] and in test [5] was “Not Active” throughout. In addition, the Ki entry in test [1] is on record as “Not Active”.
As to `C#CC1(O)CC[C@H]2[C@@H]3CCC4=CC(=O)CC[C@@H]4[C@H]3CC[C@@]21CC` (stereo partly specified) [NORGESTREL], the IC50 result in test [1], in test [2], in test [3], in test [4] and in test [5] was “Not Active” each time. Further, the Ki result in test [1] was “Not Active”.
On to `CC(C(=O)O)c1cccc(Oc2ccccc2)c1` (stereo unspecified) [FENOPROFEN], for which the IC50 entry in test [1], in test [2], in test [3], in test [4] and in test [5] was “Not Active” each time. Moreover, the Ki result in test [1] was “Not Active”.
On to `CC(=O)Oc1ccc(C(c2ccc(OC(C)=O)cc2)c2ccccn2)cc1` [BISACODYL], for which the IC50 entry in test [1], in test [2], in test [3] and in test [4] was “Not Active” in each case. Moreover, the Ki result in test [1] is reported as “Not Active”.
As to `C[C@@H]1C[C@H]2[C@@H]3CCC4=CC(=O)C=C[C@]4(C)[C@@]3(F)[C@@H](O)C[C@]2(C)[C@@]1(O)C(=O)CO` [DEXAMETHASONE], the IC50 entry in test [1], in test [2], in test [3], in test [4] and in test [5] was “Not Active” in each case. Moreover, in test [1], the Ki entry is reported as “Not Active”.
For the molecule `C=CCc1ccc(O)c(OC)c1` [EUGENOL], the IC50 entry in test [1], in test [2], in test [3], in test [4] and in test [5] was “Not Active” each time. Moreover, in test [1], the Ki entry is listed as “Not Active”.
As to `CC(C)c1cccc(C(C)C)c1O` [PROPOFOL], the IC50 entry in test [1], in test [2], in test [3], in test [4] and in test [5] was “Not Active” each time. The Ki result in test [1] is recorded as “Not Active”.
Consider `CC(=O)[C@H]1[C@H](C#N)C[C@H]2[C@@H]3CC=C4C[C@@H](O)CC[C@]4(C)[C@H]3CC[C@@]21C` [PREGNENOLONE CARBONITRILE], for which the IC50 entry in test [1], in test [2], in test [3], in test [4] and in test [5] was “Not Active” each time. The Ki result in test [1] is on record as “Not Active”.
